Among the data in patent publication US5281604A, “Angiotensin II receptor blocking 2,3,6-substituted quinazolinones” (American Cyanamid Company, priority 1993, dated 1994) are IC50 values, retold here.

SMILES strings stand for the structures.

The assay concerns the target T1, Angiotensin II Receptor (Bos taurus, UniProt P25104).
T1 construct: beef adrenal glands are processed as follows: fresh adrenal glands received on crushed ice are cleaned of fatty tissues; tissue Maxwell-Cohen (local slaughter house); host or cells: beef adrenal cortex, microsomal membranes (100,000×g pellet)
T1 sequence (P25104 1-359): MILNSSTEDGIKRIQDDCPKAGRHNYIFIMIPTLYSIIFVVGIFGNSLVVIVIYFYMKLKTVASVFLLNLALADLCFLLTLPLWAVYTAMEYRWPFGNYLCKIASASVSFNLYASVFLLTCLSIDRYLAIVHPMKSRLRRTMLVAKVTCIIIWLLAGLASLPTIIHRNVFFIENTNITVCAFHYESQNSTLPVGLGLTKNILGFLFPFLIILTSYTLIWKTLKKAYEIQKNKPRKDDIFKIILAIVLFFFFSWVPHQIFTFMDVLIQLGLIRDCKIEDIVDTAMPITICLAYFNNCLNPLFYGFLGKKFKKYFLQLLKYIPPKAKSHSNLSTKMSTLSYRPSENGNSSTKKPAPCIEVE
In words: Receptor Binding Assay: displacement of [125I](Sar1,Ile8)AngII from beef adrenal cortex microsomal membranes. As to conditions: 60 min room temperature. The text has this:
Beef adrenals are obtained from a local slaughter house (Maxwell-Cohen).
[^125 I](Sar^1,Ile^8)AngII, S.A. 2200 Ci/mmole, is purchased from Dupont (NEN®, Boston, Mass.). All unlabeled AngII analogs, Dimethylsulfoxide (DMSO), nucleotides, bovine serum albumin (BSA) are purchased from Sigma Chemical Co., St. Louis, Mo. U.S.A.
Approximately sixteen (16) to twenty (20) beef adrenal glands are processed as follows: fresh adrenal glands received on crushed ice are cleaned of fatty tissues and the tough membranes encapsulating the glands are removed and discarded. The brownish tissue forming the adrenal cortex is scraped off and finely minced with scissors before homogenization. Care is taken to avoid contamination with medullary tissue during dissection. The scraped cortices are suspended in twenty volumes of an ice-cold buffer medium consisting of 10 mM Tris.HCl (pH 7.4 at 22° C.) and containing 1.0 mM EDTA and 0.2M sucrose. Unless otherwise indicated, all subsequent operations are done at 4° C. […] The homogenate is centrifuged first at low speed (3,000×g) for 10 min. The resulting pellet is discarded and the supernatant fluid recentrifuged at 10,000×g for 15 minutes to give a P2 pellet. This P2 pellet is discarded and the liquid phase is carefully decanted off in clean centrifuge tubes and recentrifuged at high speed (100,000×g) for 60 min. The translucent final pellet is harvested and combined in a small volume (20-50.0 ml) of 50.0 mM Tris.HCl buffer, pH 7.2. A 100 ul aliquot is withdrawn and the protein content of the preparation is determined by the Lowry's method (Lowry, O. H., Rosebrough, N. F., Farr, A. L. and Randall, R. J., Protein measurement with Folin phenol reagent. J. Biol. Chem., […], 265-275, 1951). The pelleted membrane is reconstituted in 50.0 mM Tris.HCl buffer containing 0.1 mM of phenylmethylsulfonyl fluoride (PMSF) to give approximately a protein concentration of 2.5 mg per ml of tissue suspension. The membrane preparation is finally aliquoted in 1.0 ml volumes and stored at -70° C. until use in the binding assays.
The binding of [^125 I](Sar^1.Ile^8)AngII to microsomal membranes is initiated by the addition of reconstituted membranes (1:10 vols.) in freshly made 50.0 mM Tris.HCl buffer, pH 7.4 containing 0.25% heat inactivated bovine serum albumin (BSA): 80 ul membrane protein (10 to 20 ug/assay) to wells already containing 100 ul of incubation buffer (as described above) and 20 ul [^125 I](Sar^1,Ile^8)AmgII (Specific Activity, 2200 Ci/mmole) Non-specific binding is measured in the presence of 1.0 uM unlabeled (Sar^1,Ile^8)AngII, added in 20 ul volume. Specific binding for [^125 I](Sar^1,Ile^8) AngII is greater than 90%. In competition studies, experimental compounds are diluted in dimethylsulfoxide (DMSO) and added in 20 ul to wells before the introduction of tissue membranes. This concentration of DMSO is found to have no negative effects on the binding of [^ 125I] (Sar^1,Ile^8) AngII to the membranes. Assays are performed in triplicate. The wells are left undisturbed for 60 min. at room temperature. […] Presoaking the filter sheet in 0.1% polyethyleneimine in normal saline (PEI/Saline) greatly reduces the radioactivity retained by the filter blanks. […] The filters are removed from the filter grid and counted in a Parkard® Cobra Gamma Counder for 1 min. […] The binding data are analyzed by the non-linear interactive "LUNDON-1" program (LUNDON SOFTWARE Inc., Cleveland, Ohio U.S.A.).
Usually IC50 stands for the concentration at which inhibition is half-maximal. A high value points to a need for much substance. As to `CCCCc1nc2ccc([C@H]3OC[C@H]4[C@@H]3ON3[C@@H]4CCC3(C)C)cc2c(=O)n1Cc1ccc(-c2ccccc2-c2nnn[nH]2)cc1` (relative stereo) [Example 7, (1α, 3aα, 8aβ, 8bα)-2-Butyl-6-(octahydro-6,6-dimethylfuro[3,4-d]pyrrolo[1,2-b]isoxazol-1-yl)-3-[[2'-(1H-tetrazol-5-yl)[1,1'-biphenyl]-4-yl]methyl]-4 (3H)-quinazolinone], the IC50 was found to be 50 nM. In turn, `CCCCc1nc2ccc(C3CC4C(O3)ON(c3ccccc3)C4c3ccccc3)cc2c(=O)n1Cc1ccc(-c2ccccc2-c2nnn[nH]2)cc1` (stereo not drawn) [Example 10, (3α, 3aβ, 5β, 6aβ)-2-Butyl-6-(hexahydro-2,3-diphenylfuro[3,2-d]isoxazol-5-yl)-3-[[2'-(1H-tetrazol-5-yl)[1,1'-biphenyl]-4-yl]methyl]-4(3H)-quinazolinone] showed a 50% inhibitory concentration (IC50) of 76 nM. For `CCCCc1nc2ccc(C3CC4C(O3)ON3C4CCC3(C)C)cc2c(=O)n1Cc1ccc(-c2ccccc2-c2nnn[nH]2)cc1` (stereo not shown) [Example 14] the value was 31.9 nM.

Turning to `CCCCc1nc2ccc(C3CC4C(c5ccc(C)cc5)=NOC4O3)cc2c(=O)n1Cc1ccc(-c2ccccc2-c2nnn[nH]2)cc1` (stereo not shown) [Example 12], the 50% inhibitory concentration (IC50) turned out to be 100 nM.
